Results: EP3939664A1 (priority 2020, dated 2022)

Legend:
SARS-CoV-2 [1] = experiment: Cell monolayer protection assay (crystal violet staining of virus-induced cell death); format: cell-based, SARS-CoV-2 stock strain NL/2020; design: PC Max: unit: uM; settings: for minimal effective concentration: Severe acute respiratory syndrome coronavirus 2, Vero C1008, minimum compound concentration protecting Vero-E6 cell monolayer from virus induced cell death, read-out: PC Min; for minimal effective concentration / PC Max: 72 hours, dilutions from 50µM to 780nM tested; for PC Max: maximum compound concentration protecting Vero-E6 cell monolayer from virus induced cell death
[2] = tested on: hCoV-229E-GFP virus (Human coronavirus 229E expressing Green Fluorescent Protein); experiment: microbe, parasite or virus in culture; format: cell-based; settings: Huh7-Lunet#3 cells, 72 hours at 33°C, read-out: reduction of hCoV-229E-GFP propagation
in vitro = settings: human, huh7-lunet#3 cells
SARS-CoV-2 [3] = experiment: Relative viral RNA content by real time qPCR; format: cell-based; settings: for activity at 15 µM: Severe acute respiratory syndrome coronavirus 2, Vero C1008, 15µM compound, viral RNA by qPCR, relative to cells treated only with vehicle (DMSO)

In the case of `COc1ccc(-c2cc(C(=O)O)c3cc(-c4ccc(C(C)(C)C)cc4)ccc3n2)cc1` [Example 4, 6-(4-(tert-butyl)phenyl)-2-(4-methoxyphenyl)quinoline-4-carboxylic acid], the minimal effective concentration (SARS-CoV-2 [1]) is reported as 50 µM, the “PC Max” value (SARS-CoV-2 [1]) is reported as 50 and the inhibition at 10 µM [2] is reported as 74%. The viability at 72 h, 10 µM (in vitro) was 107%.
For `CCC(CC)COC(=O)[C@H](C)N[P@](=O)(OC[C@H]1O[C@@](C#N)(c2ccc3c(N)ncnn23)[C@H](O)[C@@H]1O)Oc1ccccc1` [Remdesevir, remdesivir, reference compound], the minimal effective concentration (SARS-CoV-2 [1]) was 0.78 µM and the “PC Max” value (SARS-CoV-2 [1]) was 50.
In the case of `CCc1ccc(-c2ccc3nc(-c4ccccc4)cc(C(=O)O)c3c2)cc1` [Example 12, 6-(4-ethylphenyl)-2-phenylquinoline-4-carboxylic acid], the minimal effective concentration (SARS-CoV-2 [1]) is reported as 50 µM and the “PC Max” value (SARS-CoV-2 [1]) is reported as 50.
With `CCCCc1ccc(-c2ccc(-c3cc(C(=O)O)c4ccccc4n3)cc2)cc1` [Example 20, 2-(4'-butyl-[1,1'-biphenyl]-4-yl)quinoline-4-carboxylic acid] the minimal effective concentration (SARS-CoV-2 [1]) was 12.5 µM, the “PC Max” value (SARS-CoV-2 [1]) was 50 and the “viral RNA levels by qPCR (result in words)” value (“viral RNA levels by qPCR” for short) (SARS-CoV-2 [3]) was “virtually undetectable levels”. For the same molecule, the activity at 15 µM (SARS-CoV-2 [3]) was 0.001%.
For `CCc1ccc(-c2cccc3c(C(=O)O)cc(-c4ccc(OC)cc4)nc23)cc1` [Example 42, 8-(4-ethylphenyl)-2-(4-methoxyphenyl)quinoline-4-carboxylic acid], the minimal effective concentration (SARS-CoV-2 [1]) was 50 µM and the “PC Max” value (SARS-CoV-2 [1]) was 50.
For `COc1ccc(-c2cc(C(=O)O)c3ccc(-c4ccc(C(C)(C)C)cc4)cc3n2)cc1` [Example 34, 7-(4-(tert-butyl)phenyl)-2-(4-methoxyphenyl)quinoline-4-carboxylic acid], the minimal effective concentration (SARS-CoV-2 [1]) was 50 µM and the “PC Max” value (SARS-CoV-2 [1]) was 50.
With `CC(C)(C)c1ccc(-c2ccc(-c3cc(C(=O)O)c4ccccc4n3)cc2)cc1` [Example 21, 2-(4'-(tert-butyl)-[1,1'-biphenyl]-4-yl)quinoline-4-carboxylic acid] the “protective activity against SARS-CoV-2 (result in words)” value (SARS-CoV-2 [1]; Figure 1, 0.78-50µM) was “comparable efficacy to remdesivir”, the minimal effective concentration (SARS-CoV-2 [1]) was 3.12 µM and the “PC Max” value (SARS-CoV-2 [1]) was 50. For the same molecule, the “viral RNA levels by qPCR” value (SARS-CoV-2 [3]) was “virtually undetectable levels” and the activity at 15 µM (SARS-CoV-2 [3]) was 1e-05%.
With `CCc1ccc(-c2ccc(-c3cc(C(=O)O)c4ccccc4n3)cc2)cc1` [Example 19, 2-(4'-ethyl-[1,1'-biphenyl]-4-yl)quinoline-4-carboxylic acid] the minimal effective concentration (SARS-CoV-2 [1]) was 50 µM and the “PC Max” value (SARS-CoV-2 [1]) was 50.
For `CCCCc1ccc(-c2ccc3c(C(=O)O)cc(-c4ccc(OC)cc4)nc3c2)cc1` [Example 33, 7-(4-butylphenyl)-2-(4-methoxyphenyl)quinoline-4-carboxylic acid], the minimal effective concentration (SARS-CoV-2 [1]) was 50 µM and the “PC Max” value (SARS-CoV-2 [1]) was 50.
With `CCCCc1ccc(-c2cccc(-c3cc(C(=O)O)c4ccccc4n3)c2)cc1` [Example 27, 2-(4'-butyl-[1,1'-biphenyl]-3-yl)quinoline-4-carboxylic acid] the minimal effective concentration (SARS-CoV-2 [1]) was 25 µM and the “PC Max” value (SARS-CoV-2 [1]) was 50.
With `O=C(O)c1cc(-c2ccc(-c3ccc(Cl)c(Cl)c3)cc2)nc2ccccc12` [Example 23, 2-(3',4'-dichloro-[1,1'-biphenyl]-4-yl)quinoline-4-carboxylic acid] the minimal effective concentration (SARS-CoV-2 [1]) was 50 µM and the “PC Max” value (SARS-CoV-2 [1]) was 50.
In the case of `O=C(O)c1cc(-c2ccccc2)nc2ccc(-c3ccc(Cl)c(Cl)c3)cc12` [Example 16, 6-(3,4-dichlorophenyl)-2-phenylquinoline-4-carboxylic acid], the minimal effective concentration (SARS-CoV-2 [1]) is reported as 50 µM and the “PC Max” value (SARS-CoV-2 [1]) is reported as 50.
For `COc1ccc(-c2cc(C(=O)O)c3cccc(-c4ccc(Cl)c(Cl)c4)c3n2)cc1` [Example 46, 8-(3,4-dichlorophenyl)-2-(4-methoxyphenyl)quinoline-4-carboxylic acid], the minimal effective concentration (SARS-CoV-2 [1]) was 50 µM and the “PC Max” value (SARS-CoV-2 [1]) was 50.
With `CC(C)(C)c1ccc(-c2cccc(-c3cc(C(=O)O)c4ccccc4n3)c2)cc1` [Example 28, 2-(4'-(tert-butyl)-[1,1'-biphenyl]-3-yl)quinoline-4-carboxylic acid] the minimal effective concentration (SARS-CoV-2 [1]) was 25 µM and the “PC Max” value (SARS-CoV-2 [1]) was 50.
For `COc1ccc(-c2cc(C(=O)O)c3cccc(-c4ccc(C(C)(C)C)cc4)c3n2)cc1` [Example 44, 8-(4-(tert-butyl)phenyl)-2-(4-methoxyphenyl)quinoline-4-carboxylic acid], the minimal effective concentration (SARS-CoV-2 [1]) was 12.5 µM, the “PC Max” value (SARS-CoV-2 [1]) was 50 and the “viral RNA levels by qPCR” value (SARS-CoV-2 [3]) was “virtually undetectable levels”. The activity at 15 µM (SARS-CoV-2 [3]) was 0.01%.
For `COc1ccc(-c2cc(C(=O)O)c3cccc(-c4cccc(OC(F)(F)F)c4)c3n2)cc1` [Example 47, 2-(4-methoxyphenyl)-8-(3-(trifluoromethoxy)phenyl)quinoline-4-carboxylic acid], the minimal effective concentration (SARS-CoV-2 [1]) was 50 µM and the “PC Max” value (SARS-CoV-2 [1]) was 50.
For `O=C(O)c1cc(-c2ccc(-c3cccc(OC(F)(F)F)c3)cc2)nc2ccccc12` [Example 24, 2-(3'-(trifluoromethoxy)-[1,1'-biphenyl]-4-yl)quinoline-4-carboxylic acid], the minimal effective concentration (SARS-CoV-2 [1]) was 50 µM and the “PC Max” value (SARS-CoV-2 [1]) was 50.
In the case of `CC(C)(C)c1ccc(-c2ccc3nc(-c4ccccc4)cc(C(=O)O)c3c2)cc1` [Example 14, 6-(4-(tert-butyl)phenyl)-2-phenylquinoline-4-carboxylic acid], the minimal effective concentration (SARS-CoV-2 [1]) is reported as 50 µM and the “PC Max” value (SARS-CoV-2 [1]) is reported as 50.
In the case of `CCCOc1ccc(-c2cccc3c(C(=O)O)cc(-c4ccc(OC)cc4)nc23)cc1` [Example 48, 2-(4-methoxyphenyl)-8-(4-propoxyphenyl)quinoline-4-carboxylic acid], the minimal effective concentration (SARS-CoV-2 [1]) is reported as 50 µM and the “PC Max” value (SARS-CoV-2 [1]) is reported as 50.
In the case of `CCCCc1ccc(-c2ccc3nc(-c4ccc(OC)cc4)cc(C(=O)O)c3c2)cc1` [Example 3, 6-(4-butylphenyl)-2-(4-methoxyphenyl)quinoline-4-carboxylic acid], the minimal effective concentration (SARS-CoV-2 [1]) is reported as 50 µM and the “PC Max” value (SARS-CoV-2 [1]) is reported as 50.
